Source: ChEMBL document CHEMBL2146454, “2,6-Naphthyridines as potent and selective inhibitors of the novel protein kinase C isozymes” (Bioorg Med Chem Lett, 2011)

Legend:
[1] = molecular target: Protein kinase C beta type (Homo sapiens, UniProt P05771); assay: Inhibition of recombinant human PKCbeta1 assessed as [33P]-ATP incorporation into tridecapeptide substrate after 60 mins by scintillation proximity assay
[2] = molecular target: Protein kinase C alpha type (Homo sapiens, UniProt P17252); assay: Inhibition of recombinant human PKCalpha assessed as [33P]-ATP incorporation into tridecapeptide substrate after 60 mins by scintillation proximity assay
[3] = molecular target: T1, Protein kinase C epsilon type (Homo sapiens, UniProt Q02156); assay: Inhibition of recombinant human PKCepsilon assessed as [33P]-ATP incorporation into tridecapeptide substrate after 60 mins by scintillation proximity assay
T1 sequence (Q02156 whole entry): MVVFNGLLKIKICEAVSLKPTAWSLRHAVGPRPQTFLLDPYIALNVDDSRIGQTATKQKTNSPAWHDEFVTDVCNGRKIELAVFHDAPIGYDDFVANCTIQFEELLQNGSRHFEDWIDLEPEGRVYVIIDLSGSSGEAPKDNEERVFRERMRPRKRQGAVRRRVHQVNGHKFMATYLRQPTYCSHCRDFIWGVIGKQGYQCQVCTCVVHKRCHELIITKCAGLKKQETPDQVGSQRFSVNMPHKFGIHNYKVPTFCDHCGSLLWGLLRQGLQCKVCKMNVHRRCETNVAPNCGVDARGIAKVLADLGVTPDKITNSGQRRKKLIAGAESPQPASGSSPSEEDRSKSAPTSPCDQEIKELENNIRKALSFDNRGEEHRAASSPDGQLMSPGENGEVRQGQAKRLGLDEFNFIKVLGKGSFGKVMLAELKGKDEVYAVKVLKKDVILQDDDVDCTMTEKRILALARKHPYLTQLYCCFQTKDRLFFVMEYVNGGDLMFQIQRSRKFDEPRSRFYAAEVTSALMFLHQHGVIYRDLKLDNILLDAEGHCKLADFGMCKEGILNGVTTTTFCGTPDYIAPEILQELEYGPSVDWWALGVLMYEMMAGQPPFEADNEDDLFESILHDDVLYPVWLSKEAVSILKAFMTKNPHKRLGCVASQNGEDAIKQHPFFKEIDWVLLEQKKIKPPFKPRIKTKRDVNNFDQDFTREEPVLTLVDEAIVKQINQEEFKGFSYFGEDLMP

[4] = molecular target: Protein kinase C eta type (Homo sapiens, UniProt P24723); assay: Inhibition of recombinant human PKCeta assessed as [33P]-ATP incorporation into tridecapeptide substrate after 60 mins by scintillation proximity assay
Protein kinase C eta type, sequence (P24723 whole entry): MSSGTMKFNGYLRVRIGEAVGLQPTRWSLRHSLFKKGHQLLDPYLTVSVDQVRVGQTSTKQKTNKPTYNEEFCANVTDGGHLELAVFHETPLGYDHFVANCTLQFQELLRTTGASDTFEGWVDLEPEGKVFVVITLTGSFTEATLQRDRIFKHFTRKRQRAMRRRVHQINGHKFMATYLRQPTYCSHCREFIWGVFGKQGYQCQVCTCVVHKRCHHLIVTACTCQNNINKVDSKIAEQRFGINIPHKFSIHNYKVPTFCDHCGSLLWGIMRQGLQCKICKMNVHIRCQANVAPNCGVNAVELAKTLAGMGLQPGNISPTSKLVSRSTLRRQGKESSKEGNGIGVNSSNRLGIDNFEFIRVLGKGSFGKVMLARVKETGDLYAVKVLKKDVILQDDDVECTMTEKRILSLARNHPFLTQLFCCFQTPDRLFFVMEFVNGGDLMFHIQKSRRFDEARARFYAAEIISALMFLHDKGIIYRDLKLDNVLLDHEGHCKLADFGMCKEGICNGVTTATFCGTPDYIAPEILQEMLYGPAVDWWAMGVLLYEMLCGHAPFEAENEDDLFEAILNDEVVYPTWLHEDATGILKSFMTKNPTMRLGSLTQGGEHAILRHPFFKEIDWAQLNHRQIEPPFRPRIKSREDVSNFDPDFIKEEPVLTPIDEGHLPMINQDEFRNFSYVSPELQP

[5] = molecular target: Protein kinase C theta type (Homo sapiens, UniProt Q04759); assay: Inhibition of recombinant human PKCtheta assessed as [33P]-ATP incorporation into tridecapeptide substrate after 60 mins by scintillation proximity assay
Protein kinase C theta type, sequence (Q04759 whole entry): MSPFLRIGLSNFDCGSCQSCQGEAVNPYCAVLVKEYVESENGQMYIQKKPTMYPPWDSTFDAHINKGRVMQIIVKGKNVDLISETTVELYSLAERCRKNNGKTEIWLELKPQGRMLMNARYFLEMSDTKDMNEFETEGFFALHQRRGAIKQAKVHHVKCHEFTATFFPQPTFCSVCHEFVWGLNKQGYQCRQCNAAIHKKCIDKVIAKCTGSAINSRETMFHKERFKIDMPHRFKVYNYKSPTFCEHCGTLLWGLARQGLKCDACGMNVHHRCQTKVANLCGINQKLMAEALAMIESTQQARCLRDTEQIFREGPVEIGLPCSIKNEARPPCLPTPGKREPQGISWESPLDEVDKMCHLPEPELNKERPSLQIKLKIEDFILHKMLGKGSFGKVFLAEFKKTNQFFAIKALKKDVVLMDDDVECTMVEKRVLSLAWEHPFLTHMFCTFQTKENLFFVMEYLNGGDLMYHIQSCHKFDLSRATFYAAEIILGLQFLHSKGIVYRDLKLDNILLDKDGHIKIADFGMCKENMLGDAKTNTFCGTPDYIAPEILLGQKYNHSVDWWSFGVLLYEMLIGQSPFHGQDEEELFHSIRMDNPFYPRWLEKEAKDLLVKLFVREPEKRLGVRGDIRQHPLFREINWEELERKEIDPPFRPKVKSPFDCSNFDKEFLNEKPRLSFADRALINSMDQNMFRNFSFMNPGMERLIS

[6] = molecular target: Protein kinase C delta type (Homo sapiens, UniProt Q05655); assay: Inhibition of recombinant human PKCdelta assessed as [33P]-ATP incorporation into tridecapeptide substrate after 60 mins by scintillation proximity assay
Protein kinase C delta type, sequence (Q05655 whole entry): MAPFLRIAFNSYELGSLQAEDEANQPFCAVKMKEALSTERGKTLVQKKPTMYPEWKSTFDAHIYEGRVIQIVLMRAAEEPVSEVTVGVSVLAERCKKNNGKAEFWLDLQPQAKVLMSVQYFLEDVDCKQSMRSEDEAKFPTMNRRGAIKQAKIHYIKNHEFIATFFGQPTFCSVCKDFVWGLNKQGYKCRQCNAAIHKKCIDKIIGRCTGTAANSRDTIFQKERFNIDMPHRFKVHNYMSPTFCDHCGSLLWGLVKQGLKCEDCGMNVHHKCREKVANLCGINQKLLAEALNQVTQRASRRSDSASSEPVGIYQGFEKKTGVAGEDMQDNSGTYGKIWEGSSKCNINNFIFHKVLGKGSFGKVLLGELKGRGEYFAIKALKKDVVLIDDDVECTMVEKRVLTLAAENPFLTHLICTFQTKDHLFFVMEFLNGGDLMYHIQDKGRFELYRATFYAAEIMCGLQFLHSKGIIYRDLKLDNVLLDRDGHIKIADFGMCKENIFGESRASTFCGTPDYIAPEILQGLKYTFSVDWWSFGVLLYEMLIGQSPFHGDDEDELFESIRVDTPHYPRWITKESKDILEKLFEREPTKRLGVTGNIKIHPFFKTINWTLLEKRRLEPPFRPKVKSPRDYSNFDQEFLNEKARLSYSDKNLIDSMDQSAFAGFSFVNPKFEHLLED

[7] = Inhibition of antiCD3 and antiCD28 antibody-stimulated rat blood T lymphocyte proliferation incubated 1 hr before antibody challenge measured after 52 hrs by radioactive [3H]-thymidine incorporation assay; type: tissue-based; settings: T-cell
[8] = Intrinsic aqueous solubility of the compound; type: physicochemical; settings: read-out: Intrinsic_solubility
[9] = Lipophilicity, log P of the compound; type: physicochemical; settings: octanol/water
[10] = Octanol-water distribution coefficient, log D of the compound at pH 6.8; type: physicochemical
[11] = Plasma protein binding in human by rapid equilibrium dialysis method; type: ADME, cell-free; settings: read-out: PPB (converted)
[12] = Plasma protein binding in rat by rapid equilibrium dialysis method; type: ADME, cell-free; settings: read-out: PPB (converted)
[13] = AUC (infinity) in Lewis rat at 5 mg/kg, iv; type: ADME, organism-based; set-up: dose 5 mg/kg, route intravenous, time infinity; settings: plasma
[14] = Elimination half life in Lewis rat at 5 mg/kg, iv; type: ADME, organism-based; set-up: dose 5 mg/kg, route intravenous; settings: in vivo, read-out: beta t1/2 (converted)
[15] = Clearance in Lewis rat at 5 mg/kg, iv; type: ADME, organism-based; set-up: dose 5 mg/kg, route intravenous; settings: in vivo
[16] = Volume of distribution at steady state in Lewis rat at 5 mg/kg, iv; type: ADME, organism-based; set-up: dose 5 mg/kg, route intravenous; settings: in vivo, read-out: Vdss
[17] = AUC (infinity) in Lewis rat at 10 mg/kg, po; type: ADME, organism-based; set-up: time infinity, dose 10 mg/kg, route oral; settings: plasma
[18] = Tmax in Lewis rat at 10 mg/kg, po; type: ADME, organism-based; set-up: dose 10 mg/kg, route oral; settings: in vivo
[19] = Cmax in Lewis rat at 10 mg/kg, po; type: ADME, organism-based; set-up: dose 10 mg/kg, route oral; settings: in vivo
[20] = Oral bioavailability in Lewis rat at 10 mg/kg; type: ADME, organism-based; settings: in vivo
Mus musculus [21] = species on record: Mus musculus; assay: animal or person; type: functional; settings: BALB/c, route oral
Mus musculus [22] = species on record: Mus musculus; assay: animal or person; type: functional; settings: BALB/c, route oral; remark: listed apart in the source
[23] = Dissociation constant, pKa of the compound; type: physicochemical

Protein kinase C beta type, sequence (P05771 whole entry): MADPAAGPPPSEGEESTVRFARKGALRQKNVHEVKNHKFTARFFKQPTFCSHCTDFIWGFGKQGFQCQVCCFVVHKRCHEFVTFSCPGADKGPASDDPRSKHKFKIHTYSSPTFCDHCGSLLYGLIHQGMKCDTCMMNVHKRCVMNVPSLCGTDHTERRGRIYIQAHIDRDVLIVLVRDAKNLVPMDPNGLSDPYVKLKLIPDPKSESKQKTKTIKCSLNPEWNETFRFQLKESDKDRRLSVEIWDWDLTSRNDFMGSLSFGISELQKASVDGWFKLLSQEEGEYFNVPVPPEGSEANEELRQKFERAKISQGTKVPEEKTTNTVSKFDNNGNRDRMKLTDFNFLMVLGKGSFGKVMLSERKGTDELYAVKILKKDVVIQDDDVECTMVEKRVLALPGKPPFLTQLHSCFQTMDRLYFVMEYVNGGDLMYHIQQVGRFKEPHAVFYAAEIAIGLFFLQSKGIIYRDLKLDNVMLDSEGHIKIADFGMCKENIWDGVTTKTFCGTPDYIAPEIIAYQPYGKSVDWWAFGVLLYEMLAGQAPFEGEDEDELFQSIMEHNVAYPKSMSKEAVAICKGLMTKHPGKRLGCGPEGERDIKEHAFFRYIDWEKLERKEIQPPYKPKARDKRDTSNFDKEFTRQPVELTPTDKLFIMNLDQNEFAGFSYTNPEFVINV

SMILES	IC50 [1] [nM]	IC50 [2] [nM]	IC50 [3] [nM]	IC50 [4] [nM]	IC50 [5] [nM]	IC50 [6] [nM]	further results
NCCNc1nc(-c2ccncc2)cc2cnccc12	859	–	–	–	–	–	–
c1cc(-c2cc3cnccc3c(N3CCNCC3)n2)ccn1	823	> 1000	8	6	109	–	–
NCCNc1nc(-c2ccncc2)cc2ccccc12	> 1000	> 1000	877	743	> 1000	> 1000	–
NCCNc1nc(-c2ccncc2)cc2ncccc12	> 1000	> 1000	929	401	> 1000	> 1000	–
NCCNc1nc(-c2ccncc2)cc2ccncc12	> 1000	> 1000	> 1000	> 1000	> 1000	> 1000	–
NCCNc1cc(-c2ccncc2)cc2cnccc12	> 1000	> 1000	44	54	355	157	IC50 [7]: 1040 nM
NCCNc1nc(-c2ccncc2)nc2cnccc12	> 1000	> 1000	38	27	> 1000	102	–
NCCOc1nc(-c2ccncc2)cc2cnccc12	> 1000	> 1000	120	82	948	703	–
C[C@H](N)CNc1nc(-c2ccncc2)cc2cnccc12	378	829	5	2	55	8	IC50 [7]: 138 nM; solubility [8]: > 400 µg/mL; logP [9]: 2.2; logD [10]: -0.3; fraction unbound [11]: 0.42; fraction unbound [12]: 0.37; AUC(0-inf) [13]: 1770 ng·h/mL; half-life [14]: 486 min; clearance [15]: 49 mL/min/kg; Vd [16]: 14 L/kg; AUC(0-inf) [17]: 712 ng·h/mL; Tmax [18]: 2 h; Cmax [19]: 53 ng/mL; bioavailability [20]: 20%; inhibition in vivo at 50 mg/kg (Mus musculus [21]): 37%; inhibition in vivo at 100 mg/kg (Mus musculus [22]): 70%; pKa [23]: 9
NC(CNc1nc(-c2ccncc2)cc2cnccc12)Cc1ccccc1 (stereo not given)	> 1000	818	403	452	> 1000	932	–
CN(CCN)c1nc(-c2ccncc2)cc2cnccc12	> 1000	> 1000	24	34	350	371	–
CNCCNc1nc(-c2ccncc2)cc2cnccc12	> 1000	> 1000	79	93	997	254	–
c1cc(-c2cc3cnccc3c(N3CCCNCC3)n2)ccn1	661	433	7	4	77	63	–
NC1CCCN(c2nc(-c3ccncc3)cc3cnccc23)C1 (stereo not given)	865	771	8	13	132	214	–
NCCCNc1nc(-c2ccncc2)cc2cnccc12	779	676	13	10	97	53	–
OCCNc1nc(-c2ccncc2)cc2cnccc12	> 1000	> 1000	81	188	743	635	–
O=C1CN(c2nc(-c3ccncc3)cc3cnccc23)CCN1	> 1000	> 1000	802	735	> 1000	> 1000	–
CC(C)(N)CNc1nc(-c2cccnc2)cc2cnccc12	> 1000	> 1000	> 1000	> 1000	> 1000	> 1000	–
CC(C)(N)CNc1nc(-c2ccnc(N)c2)cc2cnccc12	> 1000	378	147	60	496	294	–
CC(C)Nc1cc(-c2cc3cnccc3c(NCC(C)(C)N)n2)ccn1	> 1000	> 1000	> 1000	862	> 1000	> 1000	–
CC(C)(N)CNc1nc(-c2ccncc2F)cc2cnccc12	961	> 1000	62	18	140	124	–
CC(C)(N)CNc1nc(-c2ccncc2Cl)cc2cnccc12	> 1000	> 1000	47	15	93	221	–
Cc1cnccc1-c1cc2cnccc2c(NCC(C)(C)N)n1	> 1000	> 1000	133	52	738	386	–
